Test results from paper PMC12361511 (The EMBO Journal, 2025).

Tests used:
[1] = target: T1, PPP2R1A (Mus musculus, UniProt Q76MZ3); assay: thermal shift (DSF, SYPRO Orange); format: binding; settings: 5 µM protein, 10 mM NaH2PO4 pH 6.0, 25 mM NaCl, 1 mM β-mercaptoethanol; destabilising
T1 construct: full length, C-terminal 6xHis, E. coli (BL-21 or Arctic Express), about 65 kDa, isolated subunit; 893-PAL is the native protein in mouse FL5.12 / mPCE cells

[2] = target: T2, KPNB1.1 (Homo sapiens, UniProt Q14974); assay: thermal shift (DSF, SYPRO Orange); format: binding; settings: 5 µM protein, 10 mM NaH2PO4 pH 6.0, 25 mM NaCl, 1 mM β-mercaptoethanol; destabilising
T2 construct: amino acids 1-442 (N-terminal half), N-terminal 10xHis, codon-optimized, E. coli, about 44 kDa
T2 sequence (Q14974 1-442): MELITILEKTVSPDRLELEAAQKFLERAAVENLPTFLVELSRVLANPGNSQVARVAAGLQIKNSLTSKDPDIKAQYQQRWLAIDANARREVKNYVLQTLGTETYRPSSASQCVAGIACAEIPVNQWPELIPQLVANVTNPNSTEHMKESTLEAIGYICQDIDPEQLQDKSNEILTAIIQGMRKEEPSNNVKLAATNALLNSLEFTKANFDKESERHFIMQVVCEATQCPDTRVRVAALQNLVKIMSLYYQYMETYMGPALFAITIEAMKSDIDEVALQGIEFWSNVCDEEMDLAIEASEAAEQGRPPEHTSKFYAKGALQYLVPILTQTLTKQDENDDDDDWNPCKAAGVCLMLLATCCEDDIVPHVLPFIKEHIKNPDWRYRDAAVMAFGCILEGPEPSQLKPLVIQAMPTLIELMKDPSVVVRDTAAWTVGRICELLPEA

[3] = target: T1, PPP2R1A; assay: thermal shift (DSF, SYPRO Orange); also CD; format: binding; settings: 5 µM protein, 10 mM NaH2PO4 pH 6.0, 25 mM NaCl, 1 mM β-mercaptoethanol; destabilising, reversible on dialysis
[4] = target: T2, KPNB1.1; assay: thermal shift (DSF, SYPRO Orange); also CD; format: binding; settings: 5 µM protein, 10 mM NaH2PO4 pH 6.0, 25 mM NaCl, 1 mM β-mercaptoethanol; destabilising, reversible on dialysis
[5] = test system: FL5.12; assay: cells; parameters: cytotoxicity / viability IC50 in FL5.12 cells at 48 h; settings: Mus musculus, FL5.12, 48 h

T1 sequence (Q76MZ3 2-589): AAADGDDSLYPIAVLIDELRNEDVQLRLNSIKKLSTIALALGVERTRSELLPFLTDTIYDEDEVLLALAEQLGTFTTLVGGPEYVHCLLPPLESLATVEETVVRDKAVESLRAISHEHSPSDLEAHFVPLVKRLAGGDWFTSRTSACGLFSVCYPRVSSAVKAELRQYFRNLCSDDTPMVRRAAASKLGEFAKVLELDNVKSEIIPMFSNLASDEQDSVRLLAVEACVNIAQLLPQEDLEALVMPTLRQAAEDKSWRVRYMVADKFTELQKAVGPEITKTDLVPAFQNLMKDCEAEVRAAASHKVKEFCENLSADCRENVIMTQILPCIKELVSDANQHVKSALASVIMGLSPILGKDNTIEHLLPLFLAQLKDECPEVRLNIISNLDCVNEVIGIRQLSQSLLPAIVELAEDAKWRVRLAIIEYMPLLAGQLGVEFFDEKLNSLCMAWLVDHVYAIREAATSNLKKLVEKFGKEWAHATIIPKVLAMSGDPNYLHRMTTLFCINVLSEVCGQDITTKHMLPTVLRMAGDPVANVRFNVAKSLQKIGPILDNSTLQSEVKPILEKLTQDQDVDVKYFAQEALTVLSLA

SMILES	dTm [1]	dTm [2]	dTm [3]	dTm [4]	IC50 [5] [µM]
CCCCCCCCCCCCC/C=C/[C@@H](O)[C@@H](N)CO [sphingosine]	sphingosine triggered conformational changes in both PPP2R1A and KPNB1	sphingosine triggered conformational changes in both PPP2R1A and KPNB1			
CCCCCCCCc1ccc([C@H]2CCN[C@@H]2CO)cc1 [SH-BC-893]			SH-BC-893, FTY720, and the natural sphingolipid phytosphingosine reduced rather than increased the Tm of both	SH-BC-893, FTY720, and the natural sphingolipid phytosphingosine reduced rather than increased the Tm of both	2
CCCCCCCCCCCCC/C=C/[C@@H](O)[C@H](CO)N(C)C [dimethylsphingosine]	safingol and dimethylsphingosine (DMS) induced conformational changes in PPP2R1A and KPNB1	safingol and dimethylsphingosine (DMS) induced conformational changes in PPP2R1A and KPNB1			
CCCCCCCCc1ccc(CCC(N)(CO)CO)cc1 [FTY720]	SH-BC-893, FTY720, and the natural sphingolipid phytosphingosine reduced rather than increased the Tm of both	SH-BC-893, FTY720, and the natural sphingolipid phytosphingosine reduced rather than increased the Tm of both			
CCCCCCCCCCCCCC[C@@H](O)[C@@H](O)[C@@H](N)CO [phytosphingosine]	SH-BC-893, FTY720, and the natural sphingolipid phytosphingosine reduced rather than increased the Tm of both	SH-BC-893, FTY720, and the natural sphingolipid phytosphingosine reduced rather than increased the Tm of both			3.2
CCCCCCCCCCCCCCC[C@H](O)[C@@H](N)CO [safingol]	safingol and dimethylsphingosine (DMS) induced conformational changes in PPP2R1A and KPNB1	safingol and dimethylsphingosine (DMS) induced conformational changes in PPP2R1A and KPNB1			
